Experiment [1] concerns the target Autotaxin (Homo sapiens) (UniProt Q13822). Description: Inhibition of human recombinant ATX at 10 uM after 16 hrs; values are per cent of control.
Experiment [2] has the same target. In words: Inhibition of human recombinant ATX at 100 uM after 16 hrs; values are per cent of control.
The target is the same in experiment [3]. In words: Inhibition of human recombinant ATX at 1 uM after 16 hrs; values are per cent of control.

For orientation: residual activity means the signal under treatment as a percentage of the control signal.

For `CCCCCCCCCC(=O)N[C@H](Cc1ccc(OCc2ncc(C)c(OC)c2C)cc1)C(O)CP(=O)(O)O` (stereo partly specified), the residual activity was 86% on Autotaxin (Homo sapiens) [1] and 30% on Autotaxin (Homo sapiens) [2].

Regarding `CCCCCCCCCCCCCCCC(=O)N[C@@H](Cc1ccc(OC)cc1)C(=O)CP(=O)(O)O`, the residual activity on Autotaxin (Homo sapiens) [3] stood at 96%; on Autotaxin (Homo sapiens) [1], 68%; at Autotaxin (Homo sapiens) [2], 45%.

As for `CCCCCCCCCCCCCCCC(=O)N[C@@H](Cc1ccc(OCCC(C)C)cc1)C(=O)CP(=O)(O)O`, the residual activity at Autotaxin (Homo sapiens) [3] came out at 104%; on Autotaxin (Homo sapiens) [1], 104%; on Autotaxin (Homo sapiens) [2] it was 85%.

As for `CCCCCCCCCCCCCCCC(=O)N[C@@H](Cc1ccc(OCCC)cc1)C(=O)CP(=O)(O)O`, the residual activity is 97% at Autotaxin (Homo sapiens) [1] and 72% on Autotaxin (Homo sapiens) [2].

As for `CCCCCCCCCCCCCCCC(=O)N[C@@H](Cc1ccc(OCCCCC)cc1)C(=O)CP(=O)(O)O`, the residual activity is 95% on Autotaxin (Homo sapiens) [3] and 83% on Autotaxin (Homo sapiens) [1].

Regarding `CCCCCCCCCCCCCCCC(=O)N[C@@H](Cc1ccc(OCc2cc(OCC(F)(F)F)ccn2)cc1)C(=O)CP(=O)(O)O`, the residual activity came out at 79% at Autotaxin (Homo sapiens) [3], 68% on Autotaxin (Homo sapiens) [1] and 44% at Autotaxin (Homo sapiens) [2].

As to `CCCCCCCCCCCCCCCC(=O)N[C@@H](Cc1ccc(OCc2ccccc2)cc1)C(=O)CP(=O)(O)O`, the residual activity at Autotaxin (Homo sapiens) [1] turned out to be 71%; on Autotaxin (Homo sapiens) [2], 61%.

In the case of `CCCCCCCCCCCCCCCC(=O)N[C@@H](Cc1ccc(OCc2ccccn2)cc1)C(=O)CP(=O)(O)O`, the residual activity came to 102% on Autotaxin (Homo sapiens) [3], 72% on Autotaxin (Homo sapiens) [1] and 50% at Autotaxin (Homo sapiens) [2].

With `CCCCCCCCCCCCCCCC(=O)N[C@H](Cc1ccc(OC)cc1)C(=O)CP(=O)(O)O`, the values for the residual activity on Autotaxin (Homo sapiens) [3], at Autotaxin (Homo sapiens) [1] and on Autotaxin (Homo sapiens) [2] were 84%, 71% and 32%, respectively.

As for `CCCCCCCCCCCCCCCC(=O)N[C@H](Cc1ccc(OCCC(C)C)cc1)C(=O)CP(=O)(O)O`, the figures for the residual activity on Autotaxin (Homo sapiens) [3], at Autotaxin (Homo sapiens) [1] and on Autotaxin (Homo sapiens) [2] were 97%, 101% and 76%, respectively.

As to `CCCCCCCCCCCCCCCC(=O)N[C@H](Cc1ccc(OCCC)cc1)C(=O)CP(=O)(O)O`, the residual activity on Autotaxin (Homo sapiens) [3] turned out to be 104%; at Autotaxin (Homo sapiens) [1] it was 97%; at Autotaxin (Homo sapiens) [2], 75%.

Regarding `CCCCCCCCCCCCCCCC(=O)N[C@H](Cc1ccc(OCCCCC)cc1)C(=O)CP(=O)(O)O`, the values for the residual activity at Autotaxin (Homo sapiens) [3] and at Autotaxin (Homo sapiens) [1] were 93% and 84%, respectively.

As for `CCCCCCCCCCCCCCCC(=O)N[C@H](Cc1ccc(OCc2cc(OCC(F)(F)F)ccn2)cc1)C(=O)CP(=O)(O)O`, the residual activity turned out to be 85% on Autotaxin (Homo sapiens) [3], 70% at Autotaxin (Homo sapiens) [1] and 57% on Autotaxin (Homo sapiens) [2].

In the case of `CCCCCCCCCCCCCCCC(=O)N[C@H](Cc1ccc(OCc2ccccc2)cc1)C(=O)CP(=O)(O)O`, the residual activity on Autotaxin (Homo sapiens) [1] was 82%; at Autotaxin (Homo sapiens) [2], 76%.

Take `CCCCCCCCCCCCCCCC(=O)N[C@H](Cc1ccc(OCc2ccccn2)cc1)C(=O)CP(=O)(O)O`: the figures for the residual activity on Autotaxin (Homo sapiens) [3], on Autotaxin (Homo sapiens) [1] and at Autotaxin (Homo sapiens) [2] were 78%, 68% and 52%, respectively.

Take `CCCCCCCCCCCCCCCC(=O)N[C@H](Cc1ccc(OCc2ncc(C)c(OC)c2C)cc1)C(=O)CP(=O)(O)O`: the residual activity is 71% on Autotaxin (Homo sapiens) [3], 74% on Autotaxin (Homo sapiens) [1] and 26% on Autotaxin (Homo sapiens) [2].

As for `CCCCCCCCCCCCCCCC(=O)N[C@H](Cc1ccc(OCC2CCCCC2)cc1)C(O)CP(=O)(O)O` (single isomer, unassigned), the values for the residual activity at Autotaxin (Homo sapiens) [3], on Autotaxin (Homo sapiens) [1] and on Autotaxin (Homo sapiens) [2] were 84%, 80% and 67%, respectively.

Consider `CCCCCCCC/C=C/CCCCCCCC(=O)N[C@@H](Cc1ccc(OCc2ncc(C)c(OC)c2C)cc1)C(O)CP(=O)(O)O` (single isomer, unassigned; diastereomer a), for which the residual activity on Autotaxin (Homo sapiens) [1] was determined as 45%; on Autotaxin (Homo sapiens) [2], 15%.

Take `CCCCCCCCCCCCCC(=O)N[C@H](Cc1ccc(OCc2ncc(C)c(OC)c2C)cc1)C(O)CP(=O)(O)O` (single isomer, unassigned; diastereomer a): the values for the residual activity on Autotaxin (Homo sapiens) [1] and at Autotaxin (Homo sapiens) [2] were 99% and 67%, respectively.

On to `CCCCCCCCCCCCCCCC(=O)N[C@@H](Cc1ccc(OC)cc1)C(O)CP(=O)(O)O` (single isomer, unassigned; diastereomer a), for which the residual activity came out at 77% at Autotaxin (Homo sapiens) [3], 56% on Autotaxin (Homo sapiens) [1] and 36% at Autotaxin (Homo sapiens) [2].

As to `CCCCCCCCCCCCCCCC(=O)N[C@@H](Cc1ccc(OCCC)cc1)C(O)CP(=O)(O)O` (single isomer, unassigned; diastereomer a), the values for the residual activity on Autotaxin (Homo sapiens) [3], on Autotaxin (Homo sapiens) [1] and at Autotaxin (Homo sapiens) [2] were 110%, 97% and 77%, respectively.

As for `CCCCCCCCCCCCCCCC(=O)N[C@@H](Cc1ccc(OCCCCC)cc1)C(O)CP(=O)(O)O` (single isomer, unassigned; diastereomer a), the residual activity is 98% on Autotaxin (Homo sapiens) [3], 83% at Autotaxin (Homo sapiens) [1] and 67% at Autotaxin (Homo sapiens) [2].

In the case of `CCCCCCCCCCCCCCCC(=O)N[C@@H](Cc1ccc(OCc2ccccc2)cc1)C(O)CP(=O)(O)O` (single isomer, unassigned; diastereomer a), the residual activity at Autotaxin (Homo sapiens) [3] amounted to 97%; on Autotaxin (Homo sapiens) [1], 77%; on Autotaxin (Homo sapiens) [2], 68%.

On to `CCCCCCCCCCCCCCCC(=O)N[C@@H](Cc1ccc(OCc2ccccn2)cc1)C(O)CP(=O)(O)O` (single isomer, unassigned; diastereomer a), for which the residual activity stood at 104% on Autotaxin (Homo sapiens) [3], 81% at Autotaxin (Homo sapiens) [1] and 52% on Autotaxin (Homo sapiens) [2].

Regarding `CCCCCCCCCCCCCCCC(=O)N[C@H](Cc1ccc(OC)cc1)C(O)CP(=O)(O)O` (single isomer, unassigned; diastereomer a), the residual activity on Autotaxin (Homo sapiens) [3] amounted to 100%; on Autotaxin (Homo sapiens) [1], 78%; on Autotaxin (Homo sapiens) [2], 57%.

Turning to `CCCCCCCCCCCCCCCC(=O)N[C@H](Cc1ccc(OCCC(C)C)cc1)C(O)CP(=O)(O)O` (single isomer, unassigned; diastereomer a), the residual activity at Autotaxin (Homo sapiens) [3] is 103%; on Autotaxin (Homo sapiens) [1], 104%; at Autotaxin (Homo sapiens) [2], 72%.

Turning to `CCCCCCCCCCCCCCCC(=O)N[C@H](Cc1ccc(OCCCCC)cc1)C(O)CP(=O)(O)O` (single isomer, unassigned; diastereomer a), the residual activity amounted to 81% at Autotaxin (Homo sapiens) [3], 85% on Autotaxin (Homo sapiens) [1] and 80% at Autotaxin (Homo sapiens) [2].

For the compound `CCCCCCCCCCCCCCCC(=O)N[C@H](Cc1ccc(OCc2cc(OCC(F)(F)F)ccn2)cc1)C(O)CP(=O)(O)O` (single isomer, unassigned; diastereomer a), the figures for the residual activity on Autotaxin (Homo sapiens) [3], at Autotaxin (Homo sapiens) [1] and on Autotaxin (Homo sapiens) [2] were 92%, 84% and 55%, respectively.

Consider `CCCCCCCCCCCCCCCC(=O)N[C@H](Cc1ccc(OCc2ccccc2)cc1)C(O)CP(=O)(O)O` (single isomer, unassigned; diastereomer a), for which the residual activity on Autotaxin (Homo sapiens) [3] was 83%; at Autotaxin (Homo sapiens) [1] it was 82%; on Autotaxin (Homo sapiens) [2] it was 83%.

On to `CCCCCCCCCCCCCCCC(=O)N[C@H](Cc1ccc(OCc2ncc(C)c(OC)c2C)cc1)C(O)CP(=O)(O)O` (single isomer, unassigned; diastereomer a), for which the residual activity on Autotaxin (Homo sapiens) [3] is 108%; on Autotaxin (Homo sapiens) [1] it was 95%; at Autotaxin (Homo sapiens) [2], 63%.

In the case of `CCCCCCCCCCCCCCCCCCCC(=O)N[C@@H](Cc1ccc(OCc2ncc(C)c(OC)c2C)cc1)C(O)CP(=O)(O)O` (single isomer, unassigned; diastereomer a), the residual activity turned out to be 64% at Autotaxin (Homo sapiens) [3], 45% on Autotaxin (Homo sapiens) [1] and 10% on Autotaxin (Homo sapiens) [2].

For `CCCCCCCCCCCCCCCC(=O)N[C@@H](Cc1ccc(OCCC)cc1)C(O)CP(=O)(O)O` (single isomer, unassigned; diastereomer b), the residual activity at Autotaxin (Homo sapiens) [3] stood at 100%; at Autotaxin (Homo sapiens) [1] it was 100%; at Autotaxin (Homo sapiens) [2] it was 83%.

As for `CCCCCCCCCCCCCCCC(=O)N[C@@H](Cc1ccc(OCCCCC)cc1)C(O)CP(=O)(O)O` (single isomer, unassigned; diastereomer b), the residual activity on Autotaxin (Homo sapiens) [3] was determined as 94%; at Autotaxin (Homo sapiens) [1], 90%; on Autotaxin (Homo sapiens) [2], 70%.

For the compound `CCCCCCCCCCCCCCCC(=O)N[C@@H](Cc1ccc(OCc2ccccn2)cc1)C(O)CP(=O)(O)O` (single isomer, unassigned; diastereomer b), the figures for the residual activity on Autotaxin (Homo sapiens) [1] and at Autotaxin (Homo sapiens) [2] were 74% and 65%, respectively.

Take `CCCCCCCCCCCCCCCC(=O)N[C@H](Cc1ccc(OCCC(C)C)cc1)C(O)CP(=O)(O)O` (single isomer, unassigned; diastereomer b): the residual activity on Autotaxin (Homo sapiens) [1] turned out to be 104%; on Autotaxin (Homo sapiens) [2], 94%.

Consider `CCCCCCCCCCCCCCCC(=O)N[C@H](Cc1ccc(OCCC)cc1)C(O)CP(=O)(O)O` (single isomer, unassigned; diastereomer b), for which the residual activity on Autotaxin (Homo sapiens) [3] was found to be 108%; on Autotaxin (Homo sapiens) [1], 108%; at Autotaxin (Homo sapiens) [2], 90%.

Turning to `CCCCCCCCCCCCCCCC(=O)N[C@H](Cc1ccc(OCCCCC)cc1)C(O)CP(=O)(O)O` (single isomer, unassigned; diastereomer b), the residual activity worked out at 86% at Autotaxin (Homo sapiens) [3], 82% at Autotaxin (Homo sapiens) [1] and 70% at Autotaxin (Homo sapiens) [2].

As for `CCCCCCCCCCCCCCCC(=O)N[C@H](Cc1ccc(OCc2cc(OCC(F)(F)F)ccn2)cc1)C(O)CP(=O)(O)O` (single isomer, unassigned; diastereomer b), the residual activity at Autotaxin (Homo sapiens) [1] came out at 84%; at Autotaxin (Homo sapiens) [2], 64%.

As for `CCCCCCCCCCCCCCCCCC(=O)N[C@@H](Cc1ccc(OCc2ncc(C)c(OC)c2C)cc1)C(O)CP(=O)(O)O` (single isomer, unassigned; diastereomer b), the residual activity is 90% at Autotaxin (Homo sapiens) [1] and 62% at Autotaxin (Homo sapiens) [2].

`CCCCCCCCCCCCCC(=O)N[C@H](Cc1ccc(OCc2ncc(C)c(OC)c2C)cc1)C(O)CP(=O)(O)O` (stereo in doubt; f38): the residual activity on Autotaxin (Homo sapiens) [2] was determined as 35%.

For the origin of these results see ChEMBL document CHEMBL1144604, “Synthesis and biological evaluation of phosphonate derivatives as autotaxin (ATX) inhibitors” (Bioorg Med Chem Lett, 2007).
